Key:
Experiment in all cases: Pre-emergent herbicidal activity (Table A)
Format in all cases: in vivo
Barnyardgrass = details: Echinochloa crus-galli, pre-emergence, Bygr, 11.2 kg/ha, 10-14 days, read-out: herbicidal rating (% inhibition)
Procedure, shortened: (§1)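 Seeds or perennial propagules set on compacted topsoil, then covered with soil mixed with a known amount of test compound applied in acetone or water carrier. Ratings assigned on a scale based on percent inhibition of each species.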

Canada thistle = details: Cirsium arvense, pre-emergence, Cath, 11.2 kg/ha, 10-14 days, read-out: herbicidal rating (% inhibition)
Procedure, shortened: as §1

Cocklebur = details: Xanthium strumarium, pre-emergence, Cobu, 11.2 kg/ha, 10-14 days, read-out: herbicidal rating (% inhibition)
Procedure, shortened: as §1

Common Lambsquarters = details: Chenopodium album, pre-emergence, Colq, 11.2 kg/ha, 10-14 days, read-out: herbicidal rating (% inhibition)
Procedure, shortened: as §1

Downy Brome = details: Bromus tectorum, pre-emergence, Dobr, 11.2 kg/ha, 10-14 days, read-out: herbicidal rating (% inhibition)
Procedure, shortened: as §1

Morningglory = details: Ipomoea, pre-emergence, Mogl, 11.2 kg/ha, 10-14 days, read-out: herbicidal rating (% inhibition)
Procedure, shortened: as §1

Pennsylvania Smartweed = details: pre-emergence, Pesw, 11.2 kg/ha, 10-14 days, read-out: herbicidal rating (% inhibition)
Procedure, shortened: as §1

Quackgrass = details: pre-emergence, Rhqg, 11.2 kg/ha, 10-14 days, read-out: herbicidal rating (% inhibition)
Procedure, shortened: as §1

Rhizome Johnsongrass = details: Sorghum halepense, pre-emergence, Rhjg, 11.2 kg/ha, 10-14 days, read-out: herbicidal rating (% inhibition)
Procedure, shortened: as §1

Velvetleaf = details: Abutilon theophrasti, pre-emergence, Vele, 11.2 kg/ha, 10-14 days, read-out: herbicidal rating (% inhibition)
Procedure, shortened: as §1

Yellow Nutsedge = details: Cyperus, pre-emergence, Yens, 11.2 kg/ha, 10-14 days, read-out: herbicidal rating (% inhibition)
Procedure, shortened: as §1

Structure (SMILES) | inhibition at 11200 g/ha (Barnyardgrass) [%] | inhibition at 11200 g/ha (Canada thistle) [%] | inhibition at 11200 g/ha (Cocklebur) [%] | inhibition at 11200 g/ha (Common Lambsquarters) [%] | inhibition at 11200 g/ha (Downy Brome) [%] | inhibition at 11200 g/ha (Morningglory) [%] | inhibition at 11200 g/ha (Pennsylvania Smartweed) [%] | inhibition at 11200 g/ha (Quackgrass) [%] | inhibition at 11200 g/ha (Rhizome Johnsongrass) [%] | inhibition at 11200 g/ha (Velvetleaf) [%] | inhibition at 11200 g/ha (Yellow Nutsedge) [%]
COC(=O)c1c(OC)nc(C(F)(F)F)c(C(=O)N2CCCCCC2)c1CC(C)C [Compound 73, 3-pyridinecarboxylic acid, 5-[(hexahydro-1H-azepin-1-yl)carbonyl]-2-methoxy-4-(2-methylpropyl)-6-(trifluoromethyl)-, methyl ester] | 75 to 100 | 75 to 100 | 0 to 24 | 75 to 100 | 75 to 100 | 50 to 74 | 75 to 100 | 75 to 100 | 75 to 100 | 25 to 49 | 0 to 24
COC(=O)c1c(C(F)(F)F)nc(OC)c(C(=O)n2cccn2)c1CC(C)C [Compound 24, 3-pyridinecarboxylic acid, 6-methoxy-4-(2-methylpropyl)-5-(1H-pyrazo1-1-ylcarbonyl)-2-(trifluoromethyl)-, methyl ester, hydrate (1:0.3)] | 75 to 100 | 25 to 49 | 0 to 24 | 75 to 100 | 75 to 100 | 75 to 100 | 75 to 100 | 75 to 100 | 75 to 100 | 75 to 100 | 0 to 24
COC(=O)c1c(OC)nc(C(F)(F)F)c(CO)c1CC(C)C [Compound 40, 3-pyridinecarboxylic acid, 5-(hydroxymethyl)-2-methoxy-4-(2-methylpropyl)-6-(trifluoromethyl)-, methyl ester] | 75 to 100 | 0 to 24 | 0 to 24 | 75 to 100 | 75 to 100 | 0 to 24 | 75 to 100 | 75 to 100 | 0 to 24 | 25 to 49 | 0 to 24
COC(=O)c1c(C(F)(F)F)nc(OC)c(C2=NCCO2)c1CC(C)C [Compound 27, 3-pyridinecarboxylic acid, 5-(4,5-dihydro-2-oxazolyl)-6-methoxy-4-(2-methylpropyl)-2-(trifluoromethyl)-, methyl ester] | 75 to 100 | 75 to 100 | 25 to 49 | 75 to 100 | 75 to 100 | 75 to 100 | 75 to 100 | 75 to 100 | 0 to 24 | 75 to 100 | 50 to 74
CCSC(=O)c1c(C(F)(F)F)nc(OC)c(C(=O)OC)c1CC(C)C [Compound 53, 3-pyridinecarboxylic acid, 5-[(ethylthio)carbonyl]-2-methoxy-4-(2-methylpropyl)-6-(trifluoromethyl)-, methyl ester] | 75 to 100 | 0 to 24 | 75 to 100 | 75 to 100 | 75 to 100 | 75 to 100 | 75 to 100 | 75 to 100 | 0 to 24 | 75 to 100 | 0 to 24
COC(=O)c1c(OC)nc(C(F)(F)F)c(C(=O)OC)c1CC1CC1 [Compound 92, 3,5-pyridinedicarboxylic acid, 4-(cyclopropylmethyl)-2-methoxy-6-(trifluoromethyl)-, dimethyl ester] | 75 to 100 | 75 to 100 | 50 to 74 | 75 to 100 | 75 to 100 | 75 to 100 | 75 to 100 | 75 to 100 | 0 to 24 | 75 to 100 | 75 to 100
COC(=O)c1c(OC)nc(C(F)(F)F)c(C(=O)N2CC2C)c1CC(C)C (stereo not shown) [Compound 72] | 75 to 100 | 0 to 24 | 0 to 24 | 75 to 100 | 75 to 100 | 25 to 49 | 25 to 49 | 0 to 24 | 0 to 24 | 25 to 49 | 0 to 24
COC=Nc1c(C(F)(F)F)nc(OC)c(C(=O)OC)c1CC(C)C [Compound 76, 3-pyridinecarboxylic acid, 2-methoxy-5-[(methoxymethylene)amino]-4-(2-methylpropyl)-6-(trifluoromethyl)-, methyl ester] | 75 to 100 | 75 to 100 | 0 to 24 | 75 to 100 | 75 to 100 | 75 to 100 | 75 to 100 | 75 to 100 | 50 to 74 | 75 to 100 | 50 to 74
CCOC(=O)c1c(OC)nc(C(F)(F)Cl)c(C(=O)OC)c1CC(C)C [Compound 29, 3,5-pyridinedicarboxylic acid, 2-(chlorodifluoromethyl)-6-methoxy-4-(2-methylpropyl)-, 5-ethyl 3-methyl ester] | 75 to 100 | 0 to 24 | 0 to 24 | 75 to 100 | 75 to 100 | 75 to 100 | 75 to 100 | 75 to 100 | 25 to 49 | 75 to 100 | 25 to 49
COC(=O)c1c(OC)nc(C(F)(F)F)c(C(=O)OC)c1CSC [Compound 89, 3,5-pyridinedicarboxylic acid, 2-methoxy-4-[(methylthio)methyl]-6-(trifluoromethyl)-, dimethyl ester] | 75 to 100 | 75 to 100 | 25 to 49 | 75 to 100 | 25 to 49 | 75 to 100 | 75 to 100 | 25 to 49 | 0 to 24 | 75 to 100 | 0 to 24
CCOC(=O)c1c(C(F)(F)C(F)(F)F)nc(OC)c(C(=O)OC)c1CC(C)C [Compound 11, 3,5-pyridinedicarboxylic acid, 2-methoxy-4-(2-methylpropyl)-6-(pentafluoroethyl)-, 5-ethyl 3-methyl ester] | 75 to 100 | 25 to 49 | 0 to 24 | 75 to 100 | 75 to 100 | 50 to 74 | 75 to 100 | 75 to 100 | 0 to 24 | 25 to 49 | 75 to 100
COC(=O)c1c(OC)nc(C(F)(F)F)c(-n2cccc2)c1CC(C)C [Compound 15, 3-pyridinecarboxylic acid, 2-methoxy-4-(2-methylpropyl)-5-(1H-pyrro1-1-yl)-6-(trifluoromethyl)-, methyl ester] | 75 to 100 | 75 to 100 | 0 to 24 | 75 to 100 | 75 to 100 | 75 to 100 | 75 to 100 | 75 to 100 | 75 to 100 | 75 to 100 | 25 to 49
COC(=O)c1c(OC)nc(C(F)(F)F)c(C(=O)N2CCC2)c1CC(C)C [Compound 68, 3-pyridinecarboxylic acid, 5-(1-azetidinylcarbonyl)-2-methoxy-4-(2-methylpropyl)-6-(trifluoromethyl)-, methyl ester] | 75 to 100 | 25 to 49 | 0 to 24 | 75 to 100 | 75 to 100 | 50 to 74 | 25 to 49 | 75 to 100 | 25 to 49 | 0 to 24 | 0 to 24
COC(=O)c1c(C(F)(F)F)nc(OC)c(C(=O)NCCO)c1CC(C)C [Compound 25, 3-pyridinecarboxylic acid, 5-[[(2-hydroxyethyl)amino]carbonyl]-6-methoxy-4-(2-methylpropyl)-2-(trifluoromethyl)-, methyl ester, hydrate (1:0.2)] | 0 to 24 | 0 to 24 | 0 to 24 | 0 to 24 | 0 to 24 | 0 to 24 | 0 to 24 | 0 to 24 | 0 to 24 | 0 to 24 | 0 to 24

— patent US5391540A, “Substituted pyridine compounds” (Rohm and Haas Company, priority 1993, dated 1995)
